# pIC50: −log10 of the molar value. “And” between values parts separate entries of the source, which are not always exact repeats. Identical values can stand only once.
# Test system: PC-3 multi-cell spheroids, viability
# Assay: Anticancer human tumor PC-3 cell line growth inhibition [IpAb];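 note: spheroids exposed to compounds for 7 days before readout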;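 for viability, T/C: 100% = DMSO vehicle control wells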
# Conditions: for viability, T/C: stronger effect = lower value
# Description: Combinatorial screen of targeted agents with ipatasertib and abemaciclib in multi-cell type tumor spheroids
# A high-throughput screen of multi-cell type tumor spheroids was designed to identify active combinations of targeted small molecules and ipatasertib or abemaciclib. Complex spheroids include a stromal component modeled by human endothelial cells (HUVEC) and fibroblasts modeled by human mesenchymal stem cells (MSCs). The concentration ranges selected for each drug and investigational agent were based upon clinically achievable concentrations if the clinical Cmax of the agent was known.
# Compounds. The drugs and investigational agents: ipatasertib (NSC767898), abemaciclib(NSC768073), selumetinib (NSC741078), trametinib (758246), adavosertib (NSC754352), everolimus (NSC733504), sapanisertib (NSC764658), vemurafenib (NSC761431), venetoclax (NSC766270), copanlisib (NSC809693), apelisib (NSC765974), palbociblib (NSC758247), vemurafenib (NSC761431), dabrafenib (NSC764134), ravoxertinib (NSC781343), BMS-387032 (NSC767048), sotorasib (NSC818433), talazoparib (NSC767125) and afursertib (NSC778305), were obtained from the National Cancer Institute (NCI) Developmental Therapeutics Program Chemical Repository. The FDA-approved anticancer drug set is available from the NCI Developmental Therapeutics Program. […] The stock solutions were prepared in dimethyl sulfoxide (DMSO, Sigma-Aldrich, St. Louis, MO, cat. D2650) at 800-fold the tested concentration and stored at -70 degrees C prior to their use. All drugs and investigational agents were tested over a range starting from a high concentration at or near the clinical Cmax and decreasing in half-log increments. If the clinical Cmax for an agent had not been determined, the highest concentration tested was 10 microM.
# NCI60 Cell Culture. NCI60 cell lines were obtained from the NCI Developmental Therapeutics Program Tumor Repository. For each lot of cells, the Repository performed Applied Biosystems AmpFLSTR Identifiler testing with PCR amplification to confirm consistency with the published Identifier STR profile for each cell line. Cells were kept in continuous culture for no more than 20 passages. The optimal seeding densities for each of the cell lines at each time point assessed were determined prior to performing the concentration response studies. Briefly, the NCI60 human tumor lines were grown as monolayers in RPMI 1640 medium supplemented with 10% FBS and 2 mmol/L L-glutamine.
# An additional 9 lines were from the NCI60 cell line panel including MDA-MB-231 breast carcinoma, MDA-MB-468 breast carcinoma, MCF7 breast carcinoma, Hs578T breast carcinoma, MALME-3M melanoma, SK-MEL-2 melanoma, SK-OV-3 ovarian carcinoma, DU-145 prostate carcinoma, PC-3 prostate carcinoma, all cell lines along with major genetic alterations are listed on Table 2. Pooled donor human umbilical vein endothelial cells (HUVEC, Lonza, cat. CC-2519) and human mesenchymal stem cells (hMSC, Lonza, cat. PT-2501) were purchased from Lonza (Walkersville, MD).
# PDMR cell lines were grown in complete medium (DC medium): Dulbecco's modified Eagle's medium (DMEM)/F12 supplemented with 5% fetal bovine serum (FBS), 2 mM L-glutamine, 100 U/mL penicillin and 100 µg/ml streptomycin, 0.4 µg/ml hydrocortisone, 10 ng/ml epidermal growth factor (EGF) recombinant human protein, 24 µg/mL adenine, and 0.1 mg/mL primocin. During culture from frozen stock vials, PDMR cells were cultured in the same medium containing 10 µM Y-27632 (see Table 3). The PDCs were cultured in complete DMEM/F12 media without 10 microM Y-27632 dihydrochloride for at least two passages prior to the screen. The pooled donor HUVEC and hMSC were cultured in endothelial cell growth medium 2 (PromoCell, Heidelberg, Germany, cat. C-22011) and mesenchymal stem cell growth medium 2 (PromoCell, cat. C-28009), respectively. For all experiments, HUVEC and hMSC were used at passages </=5.
# […]
# [1] = curve of first compound, second compound 0.01 µM
# [2] = curve of first compound, second compound 0.0316 µM
# [3] = curve of first compound, second compound 0.1 µM
# [4] = curve of first compound, second compound 0.316 µM
# [5] = curve of first compound, second compound 1 µM
# [6] = second compound 0.01 µM, first compound 0.0316 µM
# [7] = second compound 0.01 µM, first compound 0.1 µM
# [8] = second compound 0.01 µM, first compound 0.316 µM
# [9] = second compound 0.01 µM, first compound 1 µM
# [10] = second compound 0.01 µM, first compound 3.16 µM
# [11] = second compound 0.01 µM, first compound 10 µM
# [12] = second compound 0.0316 µM, first compound 0.0316 µM
# [13] = second compound 0.0316 µM, first compound 0.1 µM
# [14] = second compound 0.0316 µM, first compound 0.316 µM
# [15] = second compound 0.0316 µM, first compound 1 µM
# [16] = second compound 0.0316 µM, first compound 3.16 µM
# [17] = second compound 0.0316 µM, first compound 10 µM
# [18] = second compound 0.1 µM, first compound 0.0316 µM
# [19] = second compound 0.1 µM, first compound 0.1 µM
# [20] = second compound 0.1 µM, first compound 0.316 µM
# [21] = second compound 0.1 µM, first compound 1 µM
# [22] = second compound 0.1 µM, first compound 3.16 µM
# [23] = second compound 0.1 µM, first compound 10 µM
# [24] = second compound 0.316 µM, first compound 0.0316 µM
# [25] = second compound 0.316 µM, first compound 0.1 µM
# [26] = second compound 0.316 µM, first compound 0.316 µM
# [27] = second compound 0.316 µM, first compound 1 µM
# [28] = second compound 0.316 µM, first compound 3.16 µM
# [29] = second compound 0.316 µM, first compound 10 µM
# [30] = second compound 1 µM, first compound 0.0316 µM
# [31] = second compound 1 µM, first compound 0.1 µM
# [32] = second compound 1 µM, first compound 0.316 µM
# [33] = second compound 1 µM, first compound 1 µM
# [34] = second compound 1 µM, first compound 3.16 µM
# [35] = second compound 1 µM, first compound 10 µM
smiles,measurement,setting,value
CC(C)(C)c1cnc(CSc2cnc(NC(=O)C3CCNCC3)s2)o1,"viability, T/C",compound 0.00949 µM,100% and 112%
same,"viability, T/C",compound 0.03 µM,119% and 114%
same,"viability, T/C",compound 0.0949 µM,108% and 120%
same,"viability, T/C",compound 0.3 µM,16.7% and 4.98%
same,"viability, T/C",compound 0.949 µM,6.38% and 6.26%
same,"viability, T/C",compound 3 µM,6.95% and 7.36%
same,pIC50,curve of compound,6.71 and 6.72
C=CC(=O)N1CCN(c2nc(=O)n(-c3c(C)ccnc3C(C)C)c3nc(-c4c(O)cccc4F)c(F)cc23)C(C)C1 (stereo unspecified) + CCN1CCN(Cc2ccc(Nc3ncc(F)c(-c4cc(F)c5nc(C)n(C(C)C)c5c4)n3)nc2)CC1,pIC50,[1],< 5.00
same,pIC50,[2],< 5.00
same,pIC50,[3],< 5.00
same,pIC50,[4],< 5.00
same,pIC50,[5],5.28
same,"viability, T/C",[6],84.3%
same,"viability, T/C",[7],96%
same,"viability, T/C",[8],98.6%
same,"viability, T/C",[9],101%
same,"viability, T/C",[10],114%
same,"viability, T/C",[11],116%
same,"viability, T/C",[12],51.8%
same,"viability, T/C",[13],57.3%
same,"viability, T/C",[14],69.8%
same,"viability, T/C",[15],79.2%
same,"viability, T/C",[16],107%
same,"viability, T/C",[17],78.5%
same,"viability, T/C",[18],58.1%
same,"viability, T/C",[19],60.2%
same,"viability, T/C",[20],60.4%
same,"viability, T/C",[21],54.7%
same,"viability, T/C",[22],64.2%
same,"viability, T/C",[23],74.8%
same,"viability, T/C",[24],65.2%
same,"viability, T/C",[25],67.8%
same,"viability, T/C",[26],68.4%
same,"viability, T/C",[27],70.6%
same,"viability, T/C",[28],61%
same,"viability, T/C",[29],48.2%
same,"viability, T/C",[30],56.3%
same,"viability, T/C",[31],65.5%
same,"viability, T/C",[32],60.5%
same,"viability, T/C",[33],59.1%
same,"viability, T/C",[34],60.3%
same,"viability, T/C",[35],37.5%
Cc1nc(NC(=O)N2CCCC2C(N)=O)sc1-c1ccnc(C(C)(C)C(F)(F)F)c1 (stereo unspecified),"viability, T/C",compound 0.0316 µM,82.8% and 73.3%
same,"viability, T/C",compound 0.1 µM,78.5% and 59.6%
same,"viability, T/C",compound 0.316 µM,50.1% and 53.2%
same,"viability, T/C",compound 1 µM,49.3% and 48%
same,"viability, T/C",compound 3.16 µM,44% and 47.7%
same,"viability, T/C",compound 10 µM,15.2% and 14.2%
same,pIC50,curve of compound,6.07 and 5.97
COc1c(OCCCN2CCOCC2)ccc2c3n(c(=NC(=O)c4cnc(N)nc4)nc12)CCN3,"viability, T/C",compound 0.00316 µM,97.6% and 101%
same,"viability, T/C",compound 0.01 µM,79% and 99.4%
same,"viability, T/C",compound 0.0316 µM,47.7% and 104%
same,"viability, T/C",compound 0.1 µM,21.7% and 69.3%
same,"viability, T/C",compound 0.316 µM,6.8% and 11.9%
same,"viability, T/C",compound 1 µM,5.07% and 9.47%
same,pIC50,curve of compound,7.53 and 6.84
CC(C)n1nc(-c2ccc3oc(N)nc3c2)c2c(N)ncnc21 + CC(C)NCC(C(=O)N1CCN(c2ncnc3c2C(C)CC3O)CC1)c1ccc(Cl)cc1,pIC50,[3],8.89
same,pIC50,[4],> 9.50
same,pIC50,[5],> 9.50
same,pIC50,"curve of first compound, second compound 3.16 µM",> 9.50
same,pIC50,"curve of first compound, second compound 10 µM",> 9.50
same,"viability, T/C","second compound 0.1 µM, first compound 0.000316 µM",63%
same,"viability, T/C","second compound 0.1 µM, first compound 0.001 µM",52.6%
same,"viability, T/C","second compound 0.1 µM, first compound 0.00316 µM",38.1%
same,"viability, T/C","second compound 0.1 µM, first compound 0.01 µM",20.2%
same,"viability, T/C",[18],10.4%
same,"viability, T/C",[19],10%
same,"viability, T/C","second compound 0.316 µM, first compound 0.000316 µM",37.3%
same,"viability, T/C","second compound 0.316 µM, first compound 0.001 µM",32.8%
same,"viability, T/C","second compound 0.316 µM, first compound 0.00316 µM",18.4%
same,"viability, T/C","second compound 0.316 µM, first compound 0.01 µM",11.8%
same,"viability, T/C",[24],7.3%
same,"viability, T/C",[25],6.67%
same,"viability, T/C","second compound 1 µM, first compound 0.000316 µM",20%
same,"viability, T/C","second compound 1 µM, first compound 0.001 µM",14.8%
same,"viability, T/C","second compound 1 µM, first compound 0.00316 µM",9.96%
same,"viability, T/C","second compound 1 µM, first compound 0.01 µM",7.81%
same,"viability, T/C",[30],5.46%
same,"viability, T/C",[31],4.64%
same,"viability, T/C","second compound 3.16 µM, first compound 0.000316 µM",12%
same,"viability, T/C","second compound 3.16 µM, first compound 0.001 µM",10.3%
same,"viability, T/C","second compound 3.16 µM, first compound 0.00316 µM",8.27%
same,"viability, T/C","second compound 3.16 µM, first compound 0.01 µM",5.41%
same,"viability, T/C","second compound 3.16 µM, first compound 0.0316 µM",3.69%
same,"viability, T/C","second compound 3.16 µM, first compound 0.1 µM",4.13%
same,"viability, T/C","second compound 10 µM, first compound 0.000316 µM",12%
same,"viability, T/C","second compound 10 µM, first compound 0.001 µM",10.2%
same,"viability, T/C","second compound 10 µM, first compound 0.00316 µM",7.33%
same,"viability, T/C","second compound 10 µM, first compound 0.01 µM",3.83%
same,"viability, T/C","second compound 10 µM, first compound 0.0316 µM",2.74%
same,"viability, T/C","second compound 10 µM, first compound 0.1 µM",2.74%
Cn1nccc1Nc1nccc(-c2ccn(C(CO)c3ccc(Cl)c(F)c3)c(=O)c2)n1 (stereo unspecified) + CCN1CCN(Cc2ccc(Nc3ncc(F)c(-c4cc(F)c5nc(C)n(C(C)C)c5c4)n3)nc2)CC1,pIC50,[1],< 5.00
same,pIC50,[2],< 5.00
same,pIC50,[3],< 5.00
same,pIC50,[4],< 5.00
same,pIC50,[5],< 5.00
same,"viability, T/C",[6],87.1%
same,"viability, T/C",[7],78.3%
same,"viability, T/C",[8],97.1%
same,"viability, T/C",[9],114%
same,"viability, T/C",[10],127%
same,"viability, T/C",[11],93.8%
same,"viability, T/C",[12],59.1%
same,"viability, T/C",[13],58%
same,"viability, T/C",[14],66.1%
same,"viability, T/C",[15],76.6%
same,"viability, T/C",[16],115%
same,"viability, T/C",[17],39.8%
same,"viability, T/C",[18],54.4%
same,"viability, T/C",[19],52.1%
same,"viability, T/C",[20],55.6%
same,"viability, T/C",[21],64.8%
same,"viability, T/C",[22],87.7%
same,"viability, T/C",[23],47.2%
same,"viability, T/C",[24],52.4%
same,"viability, T/C",[25],68.5%
same,"viability, T/C",[26],64.7%
same,"viability, T/C",[27],65.4%
same,"viability, T/C",[28],72.9%
same,"viability, T/C",[29],54.3%
same,"viability, T/C",[30],62.4%
same,"viability, T/C",[31],57.1%
same,"viability, T/C",[32],61.2%
same,"viability, T/C",[33],63.2%
same,"viability, T/C",[34],92%
same,"viability, T/C",[35],51.5%

# From PubChem BioAssay AID2060327 (Molecular Pharmacology Branch, DTP, NCI, 2025)
